Test results: patent US4109081A, “1-(3,5-Disubstituted-2,4,6-triiodophenyl)-3-(polyhydroxy-alkyl)urea compounds” (Mallinckrodt, Inc., priority 1975, dated 1978)
Values after ≈ are worked out from the molar mass of the structure shown. Like-named read-outs stand apart in the source and are kept apart here.

Experiments:
Sprague-Dawley rats = assay: Intracisternal Toxicity in Rats; format: in vivo, rat (Sprague-Dawley, Carworth); conditions: two day observation, Example IV at 7.43% iodine, Example V at 13.3% iodine
From the text: (§1) carried out in aqueous solutions of the compounds of Examples IV and V.
Sprague-Dawley (Carworth) rats were used. In the case of the compound of Example IV, a solution of the compound having an iodine concentration of 7.43% was employed and in the case of the compound of Example V, a solution of the compound having an iodine concentration of 13.3% was employed. The method used was a variation of the procedure outlined by Melartin et al. (Invest. Rad. 5: 13-21, 1970). After dosing, the animals were housed individually and observed for immediate reactions and periodically for a two day observation period. The LD50 values were calculated according to the method of Litchfield and Wilcoxon (J. of Pharmac. and Exptl. Therap. 96:99-115, 1949).

dogs = assay: intravenous pyelographic studies in dogs; format: in vivo, dog; conditions: for visualization of kidneys, ureters and urinary bladder: 140 mg. I/kg., dogs
Method: The compounds of Examples I, II and III were employed in intravenous pyelographic studies carried out in dogs. At a dosage of 140 mg. […] At a dosage of 167 mg.

Swiss Albino mice [1] = assay: Intracerebral Toxicity in Mice; format: in vivo, mouse (Swiss Albino, Charles River); conditions: intracerebral injection, seven day observation; Example IV at 4.3% iodine, Example V at 13.3% iodine
Method: as §1
Swiss Albino mice (charles River) were used. Fixed volumes of aqueous solutions of the iodinated compounds were injected intracerebrally via a 27 gauge needle (1/4 inch in length) according to the method of Haley et al. (Br. J. of Pharmac. 12:12-15, 1957). In the case of the compound of Example IV, a solution of the compound having an iodine concentration of 4.3% was employed and in the case of the compound of Example V, a solution of the compound having an iodine concentration of 13.3% was employed. The animals were observed immediately following injections and daily throughout a seven day observation period. The LD50 values were calculated by the method of Litchfield and Wilcoxon (J. of Pharmac. and Exptl. Therap. 96:99-113, 1949).

Swiss Albino mice [2] = assay: Acute Intravenous Toxicity Studies in Mice; format: in vivo, mouse (Swiss Albino, Charles River); conditions: lateral tail vein, iodine concentration 28.2%, pH 7.0-7.2, approximately 1 ml./min., seven day observation
Method: as §1
Swiss Albino mice (Charles River) were dosed in the lateral tail vein with aqueous solutions of the above-noted iodinated compounds of Examples I, II and III having an iodine concentration of 28.2% with a pH of 7.0-7.2. The solutions were injected at the rate of approximately 1 ml./min. […] The LD50 values were calculated by the method of Litchfield and Wilcoxon (J. of Pharmac. and Exptl. Therap. 96: 99-113, 1949).

[3] = aqueous solubility (solubility of the product in water); format: physicochemical
[4] = water, read-out: solubility of the product in water

Row | Compound | LD50 Intracisternal (Rats) (Sprague-Dawley rats) [mg. I/kg. body wt.] | LD50 Intracerebral (Mice) (Swiss Albino mice [1]) | LD50 I.V. (Mice) (Swiss Albino mice [2]) | solubility [3, 4] [mg/mL] | also measured
1 | CNC(=O)c1c(I)c(NC(=O)N(C)C[C@H](O)[C@@H](O)[C@H](O)[C@H](O)CO)c(I)c(C(=O)N(C)C)c1I [Example I, 3-[3-(N,N-Dimethylcarbamyl)-2,4,6-triiodo-5-(N-methylcarbamyl)phenyl]-1-methyl-1-(D-gluco-2,3,4,5,6-pentahydroxylhexyl)urea] | 21 | 1,500 mg. I/kg. body wt. | 1,878 mg. I/kg. body wt. | ≥ 1000 | visualization of kidneys, ureters and urinary bladder (dogs; five minutes after injection): good visualization of kidneys, ureters and urinary bladder
2 | CNC(=O)c1c(I)c(NC(=O)N[C@@H](CO)[C@@H](O)[C@H](O)[C@H](O)CO)c(I)c(N(CCO)C(C)=O)c1I [Example VI, 3-{3-[1-(D-gluco-2-deoxy-1,3,4,5,6-pentahydroxyhexyl)]ureido}-5-[N-(2-hydroxyethyl)acetamido]-2,4,6-triiodo-N-methylbenzamide] |  |  |  |  | solubility ([3]; water, read-out: water solubility): ~780 mg/mL (≈ 933 mM)
3 | COc1c(I)cc(I)c(NC(=O)N(C)C[C@H](O)[C@@H](O)[C@H](O)[C@H](O)CO)c1I [3-[3-methoxy-2,4,6-triiodophenyl]-1-methyl-1-(D-gluco-2,3,4,5,6-pentahydroxyhexyl)urea, reference compound] |  |  |  |  | solubility ([3]; insufficiently water-soluble for toxicity testing in aqueous solution, read-out: water solubility): < 10 mg/mL
4 | CNC(=O)c1c(I)c(NC(=O)N[C@@H](C=O)[C@@H](O)[C@H](O)[C@H](O)CO)c(I)c(C(=O)NC)c1I [Example V, 5-{3-[2-(D-gluco-2-deoxy-3,4,5,6-tetrahydroxy-1-oxohexyl)]ureido}-2,4,6-tri-iodo-N,N'-dimethylisophthalamide] | > 266 | > 899 mg. I/kg. body wt. |  |  | solubility ([3]; water, depending upon the method employed, read-out: aqueous solubility): 27 to 80 mg/mL (≈ 34.2 to 101 mM)
5 | CNC(=O)c1c(I)c(NC(=O)N[C@@H](C=O)[C@@H](O)[C@H](O)[C@H](O)CO)c(I)c(N(C)C(C)=O)c1I [Example III, 5-{3-[2-(D-Gluco-2-deoxy-3,4,5,6-tetrahydroxy-1-oxohexyl)]ureido}-2,4,6-triiodo-N-methyl-3-(N-methylacetamido)-benzamide] | < 40 | 1,460 mg. I/kg. body wt. | 6,800 mg. I/kg. body wt. | ≥ 1000 | visualization of the kidneys and ureters (dogs; 167 mg. I/kg., five minutes after injection, dog): better visualization of the kidneys with some visualization of the ureters; visualization of the kidney (dogs; 167 mg. I/kg., one minute after injection, dog): a shadow of the kidney
6 | CNC(=O)c1c(I)c(NC(C)=O)c(I)c(NC(=O)N[C@@H](C=O)[C@@H](O)[C@H](O)[C@H](O)CO)c1I [Example IV] | 62 | > 350 mg. I/kg. body wt. |  | 180 to 200 (≈ 228 to 253 mM) | 
7 | CNC(=O)c1c(I)c(NC(=O)N[C@@H](C=O)[C@@H](O)[C@H](O)[C@H](O)CO)c(I)c(C(=O)N(C)C)c1I [Example II] | 17 | 1,720 mg. I/kg. body wt. | 4,817 mg. I/kg. body wt. | ≥ 1000 | visualization of kidneys, ureters and urinary bladder (dogs; five minutes after injection): good visualization of kidneys, ureters and urinary bladder
